Article PMC6021367, “Regulated intratumoral expression of IL-12 using a RheoSwitch Therapeutic System® (RTS®) gene switch as gene therapy for the treatment of glioma” (Cancer Gene Therapy, 2018)

What was measured:
GL-261 glioma = assay: Survival in syngeneic mouse GL-261 orthotopic glioma model; assay type: in vivo, C57BL/6 mice; details: temozolomide 300 mg/m^2 qdx5, anti-PD-1 15 mg/m^2 q4dx5
Protocol: At 5 days prior to treatment initiation, female C57BL/6 (C57BL/6NHsd) mice 6–7 weeks old (Envigo; Indianapolis, IN) were inoculated intracranially with 3 µL of GL-261 murine glioblastoma tumor cells at 1 × 10^5 cells/mouse. Implant coordinates were 1 mm anterior and 2 mm lateral to the bregma, at a depth of 3 mm. Buprenorphine (Reckitt Benckiser Healthcare; UK) was administered to the mice approximately 30 min prior to surgery. After 5 days, mice were randomized into one of the treatment groups. For those mice administered Ad-RTS-mIL-12, the vector was administered through the same bur hole at the coordinates above in a constant volume of 3–5 μL. Veledimex was administered via oral gavage once daily for 14 consecutive days.
(§1) All values are expressed as the mean ± standard error of the mean. Statistical analysis was performed using a one-way analysis of variance with Dunnets post hoc test to compare differences between the groups versus control. Increased survival fractions were studied using Kaplan–Meier survival plot followed with a log-rank and Gehan–Wilcoxon tests to assess the significance of the differences. All statistical analyses were performed using GraphPrism 5 (GraphPad Software, Inc., CA, USA). Differences between groups were considered significant when P < 0.05. Pharmacokinetics and tissue levels of veledimex was determined using non-compartmental analysis module of the pharmacokinetic software Phoenix 64 WinNonlin.
In this model, each C57BL/6 mouse received 1 × 10^5 GL-261 glioma cells via intracranial injection ~2 mm distal to the intersection of the coronal and sagittal suture. On day 5, the animals were randomly assigned to one of the treatment groups. Animals were monitored for survival.
1 × 10^5 GL-261 glioma cells were administered into the brain. Separate groups of 12 C57BL/6 mice each were randomly assigned to one of the treatment groups. On day 1 animals were administered 1 × 10^5 GL-261 glioma cells intracranially. On day 5, Ad-RTS-mIL-12 at 5 × 10^9 vp+veledimex PO at 1–30 mg/m^2/day PO was administered for 14 consecutive days and the time to disease progression and death was studied. […] All values are expressed as the mean for >12 animals per group.

[1] = Plasma and CSF pharmacokinetics of veledimex in cynomolgus monkey; assay type: in vivo; details: cynomolgus monkeys
Protocol: (§2) Brain tumor, plasma and cerebrospinal fluid (CSF) samples were analyzed for veledimex using liquid chromatography/tandem mass spectrometry method. Brain tumor samples were homogenized in homogenization solution (10:90/v:v/acetonitrile:0.1% Tween 80 in water) with ratio of 1 g to 9 mL and proteins precipitated. Veledimex concentrations were calculated with a Quadratic 1/x concentration weighting linear regression over concentration ranges of 0.0500 to 50 ng/mL using deuterated (D3) veledimex as an internal standard.
as §1
A single oral dose of veledimex at 120 mg was administered to six cynomolgus monkeys (3/gender) and plasma and CSF levels were assessed through 48 h post treatment. Since no gender-related differences were observed, the data from male and female animals were pooled.

[2] = Plasma, CSF and brain pharmacokinetics of veledimex in mouse; assay type: in vivo, C57BL/6 mice
Protocol: as §2, §1
Veledimex was administered to separate groups of C57BL/6 mice at a single dose via oral gavage (PO) at 225 mg/m^2. Terminal blood and CSF and brain samples were collected at 1, 2, 4, 6, 24 and 48 h post dose.

[3] = Brain veledimex level in in vivo mechanistic study (increasing vector dose, fixed veledimex dose); design: species or system C57BL/6 mice; details: mean ± SEM
Protocol: as §2
In this study mice were administered Ad-RTS-mIL-12 1 × 10^8 to 5 × 10^9 vp intracranial at the coordinates stated above with veledimex administered gavage at a fixed dose of 100 mg/m^2/day PO, and brain veledimex, viral copy number and the ability to turn on the switch to elicit local production of IL-12 mRNA and IL-12 protein expressions were assessed. […] The 5 × 10^9 vp dose was chosen for all subsequent studies.

[4] = C57BL/6 mice, single oral dose 225 mg/m^2, CSF
[5] = C57BL/6 mice, single oral dose 225 mg/m^2, brain

Cn1nnc2c(C(N)=O)ncn2c1=O [temozolomide]
median survival (GL-261 glioma; bevacizumab 30 mg/m^2 biwk ×3): 33 days | animals surviving to terminal killing (GL-261 glioma; bevacizumab 30 mg/m^2 biwk ×3, day 85): 14% | tumor at terminal killing (GL-261 glioma): all mice having tumor present

CCC[C@@H](N(NC(=O)c1cccc(OC)c1CC)C(=O)c1cc(C)cc(C)c1)C(C)(C)C [veledimex]
Blood–brain barrier crossing ([1]; orally administered): crosses the blood–brain barrier | AUC0-t ratio between CSF and plasma ([1]; single oral dose 120 mg): 0.7 ± 0.2 | veledimex brain uptake ([1]; single oral dose 120 mg): ~ 1% | AUC0-t in CSF ([1]; single oral dose 120 mg, CSF): 42.5 ± 17.4 ng·h/mL | Cmax in CSF ([1]; single oral dose 120 mg, CSF): 2.07 ± 0.91 ng/mL | AUC0-t in plasma ([1]; single oral dose 120 mg, plasma): 5887 ± 2203 ng·h/mL | Cmax in plasma ([1]; single oral dose 120 mg, plasma, males and females pooled): 327 ± 142 ng/mL | mean plasma Tmax ([1]; single oral dose 120 mg, post dose): ~ 4 h | Cmax and AUC0-t ratio between CSF and plasma ([2]; C57BL/6 mice, single oral dose 225 mg/m^2): 0.34% | CSF AUC0-t [2, 4]: 466 ng·h/mL | CSF Cmax [2, 4]: 14 ng/mL | AUC0-t in the brain [2, 5]: 25325 ng·h/mL | Cmax in the brain [2, 5]: 1794 ng/mL | Cmax in plasma ([2]; C57BL/6 mice, single oral dose 225 mg/m^2, plasma): 4153 ng/mL | Blood–brain barrier crossing ([2]; mice, orally administered): crosses the blood–brain barrier | Brain veledimex Cmax ([3]; veledimex 100 mg/m^2/day PO + Ad-RTS-mIL-12 1 × 10^8 vp intracranial): 515 ± 53 ng/g | Brain veledimex Cmax ([3]; veledimex 100 mg/m^2/day PO + Ad-RTS-mIL-12 1 × 10^9 vp intracranial): 311 ± 99 ng/g | Brain veledimex Cmax ([3]; veledimex 100 mg/m^2/day PO + Ad-RTS-mIL-12 5 × 10^9 vp intracranial): 378 ± 68 ng/g

Bevacizumab
median survival (GL-261 glioma; bevacizumab 30 mg/m^2 biwk ×3): 20 days
